This note sets out measurements from ChEMBL document CHEMBL1201862, “PubChem BioAssay data set” (2004).

Each structure is given as a SMILES string.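 Method: 48-hour compound exposure of cells in 96-well plates, five concentrations, linear interpolation of endpoints. GI50 = concentration required for 50% inhibition of growth.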 Activity calls are given as the source filed them. No stated cut-off is given here; in the data, active = GI50 up to about 1.1 µM and inactive = higher.

Test systems include SK-MEL-2; SK-OV-3; SK-MEL-28; MDA-MB-435; COLO 205; LOX IMVI; OVCAR-3; PC-3; T47D; UO-31; MOLT-4; CAKI-1; HT-29; NCI-H522; KM12; HOP-62; SK-MEL-5; SF-268; IGROV-1; OVCAR-8.
Common to all, as to assay: inhibition of tumour cell growth, NCI panel, 48 h

Regarding `O=C(c1ccc(Cl)cc1)N1N=C(c2ccc(Cl)cc2)CC1(O)c1cc(F)c(Cl)cc1Cl` (stereo not given), the GI50 is 17 µM (inactive) with SK-MEL-2; 62.4 µM (inactive) with SK-OV-3; 44.3 µM (inactive) with SK-MEL-28; 16.7 µM (inactive) in the test with MDA-MB-435; 18.4 µM (inactive) in the test on COLO 205; 15.2 µM (inactive) in the test on LOX IMVI. Moreover, the GI50 with OVCAR-3 is 21.8 µM (inactive); with PC-3, 10.4 µM (inactive); with T47D it was 9.95 µM (inactive); in the test on UO-31 it was 9.06 µM (inactive); with MOLT-4 it was 9.25 µM (inactive); in the test on CAKI-1, 13.8 µM (inactive). The GI50 with HT-29 is 8.95 µM (inactive); in the test on NCI-H522 it was 12.9 µM (inactive); in the test with KM12, 6.97 µM (inactive); in the test on HOP-62, 32.1 µM (inactive); in the test on SK-MEL-5, 68.2 µM (inactive); in the test with SF-268, 47.4 µM (inactive). The GI50 is 17.9 µM (inactive) with IGROV-1 and 21.3 µM (inactive) in the test with OVCAR-8.

`Cc1c2oc3c(C)cc(F)c(C(=O)NC4C(=O)NC(C(C)C)C(=O)N5CCCC5C(=O)N(C)CC(=O)N(C)C(C(C)C)C(=O)OC4C)c3nc-2c(C(=O)NC2C(=O)NC(C(C)C)C(=O)N3CCCC3C(=O)N(C)CC(=O)N(C)C(C(C)C)C(=O)OC2C)c(N)c1=O` (stereo not given): the GI50 with SK-MEL-2 is 0.01 µM (active); with SK-OV-3 it was 0.16 µM (active); in the test with SK-MEL-28 it was 0.0263 µM (active); with MDA-MB-435 it was 0.00757 µM (active); with COLO 205, 0.0267 µM (active); in the test on LOX IMVI it was 0.00255 µM (active). The GI50 in the test on OVCAR-3 was 0.0336 µM (active); with PC-3, 0.0179 µM (active); with T47D it was 0.101 µM (active); in the test on UO-31, 0.521 µM (active); in the test on MOLT-4, < 0.001 µM (active); in the test on CAKI-1, 2.45 µM (inactive). The GI50 in the test on HT-29 was 0.00586 µM (active); in the test on NCI-H522, 0.00188 µM (active); in the test on KM12 it was 0.00475 µM (active); in the test on HOP-62 it was 0.107 µM (active); in the test with SK-MEL-5, 0.0142 µM (active); with SF-268, < 0.001 µM (active). Also, the GI50 was 0.00618 µM (active) in the test on IGROV-1 and 0.221 µM (active) in the test on OVCAR-8.

Consider `Cc1ccnc2c1c(=O)c1ccccc1n2C`, for which the GI50 is 52.1 µM (inactive) with SK-MEL-2; 35.2 µM (inactive) in the test on SK-OV-3; 43 µM (inactive) in the test on SK-MEL-28; 42.9 µM (inactive) with MDA-MB-435; 39 µM (inactive) with COLO 205; 37.6 µM (inactive) in the test with LOX IMVI. The GI50 was 63.2 µM (inactive) with OVCAR-3; 31.8 µM (inactive) with PC-3; 38.9 µM (inactive) with T47D; 12.9 µM (inactive) with UO-31; 23.9 µM (inactive) with MOLT-4; 22.1 µM (inactive) with CAKI-1. For the same molecule, the GI50 with HT-29 is 29.5 µM (inactive); with NCI-H522, 19.1 µM (inactive); with KM12 it was 50.7 µM (inactive); in the test on HOP-62, 40.7 µM (inactive); in the test on SK-MEL-5 it was 18.7 µM (inactive); with SF-268, 28 µM (inactive). Also, the GI50 is 31 µM (inactive) in the test with IGROV-1 and 34.4 µM (inactive) with OVCAR-8.

On to `O=C(Cn1c2ccc(Br)cc2c2nc3ccccc3nc21)NNC(=S)NC1CCCCC1`, for which the GI50 was 17.2 µM (inactive) in the test with SK-MEL-2; 21.7 µM (inactive) in the test on SK-OV-3; 14.7 µM (inactive) with SK-MEL-28; 13.8 µM (inactive) in the test on MDA-MB-435; 13.2 µM (inactive) with COLO 205; 12.4 µM (inactive) with LOX IMVI. Further, the GI50 in the test with OVCAR-3 was 10.8 µM (inactive); in the test with PC-3, 11.7 µM (inactive); in the test on T47D, 17.3 µM (inactive); with UO-31 it was 10.5 µM (inactive); in the test on MOLT-4, 10.7 µM (inactive); in the test on CAKI-1 it was 18 µM (inactive). Also, the GI50 is 15.5 µM (inactive) in the test with HT-29; 14.5 µM (inactive) with NCI-H522; 18.7 µM (inactive) in the test with KM12; 13.6 µM (inactive) with HOP-62; 14.2 µM (inactive) with SK-MEL-5; 16.7 µM (inactive) in the test on SF-268. Also, the GI50 in the test with IGROV-1 is 10.7 µM (inactive); with OVCAR-8 it was 14.7 µM (inactive).

`COC(=O)C(CCC(=O)CCl)N1C(=O)c2ccccc2C1=O` (stereo not given): the GI50 with SK-MEL-2 was 6.9 µM (inactive); in the test with SK-OV-3 it was 16 µM (inactive); in the test with SK-MEL-28, 10.7 µM (inactive); in the test with MDA-MB-435, 10.1 µM (inactive); in the test on COLO 205, 15.6 µM (inactive); in the test with LOX IMVI it was 1.57 µM (inactive). Besides, the GI50 in the test on OVCAR-3 is 11.6 µM (inactive); in the test on PC-3 it was 12.9 µM (inactive); with T47D, 6.25 µM (inactive); in the test with UO-31, 14.4 µM (inactive); in the test with MOLT-4 it was 2.38 µM (inactive); in the test on CAKI-1, 15.2 µM (inactive). Also, the GI50 with HT-29 was 9.64 µM (inactive); in the test with NCI-H522 it was 1.73 µM (inactive); in the test with KM12, 20.2 µM (inactive); with HOP-62 it was 16.1 µM (inactive); with SK-MEL-5, 4.95 µM (inactive); with SF-268 it was 9.42 µM (inactive). The GI50 in the test on IGROV-1 was 12.4 µM (inactive); with OVCAR-8, 12.3 µM (inactive).

Regarding `CCN(CC)CC/N=c1\c2cc(OC)ccc2[nH]c2c([N+](=O)[O-])ccc(NCCN(CC)CC)c12`, the GI50 with SK-MEL-2 was 2.06 µM (inactive); with SK-OV-3 it was 3.12 µM (inactive); in the test with SK-MEL-28 it was 4.11 µM (inactive); in the test with MDA-MB-435, 1.88 µM (inactive); in the test with COLO 205, 0.875 µM (active); with LOX IMVI, 0.794 µM (active). The GI50 in the test with OVCAR-3 is 1.92 µM (inactive); with PC-3 it was 0.706 µM (active); with T47D, > 7.38 µM (inactive); with UO-31, 1.17 µM (inactive); in the test with MOLT-4 it was 0.198 µM (active); with CAKI-1, 2.33 µM (inactive). For the same molecule, the GI50 with HT-29 is 0.7 µM (active); with NCI-H522, 1.14 µM (inactive); in the test with KM12 it was 0.875 µM (active); in the test with HOP-62, 1.18 µM (inactive); in the test on SK-MEL-5 it was 1.57 µM (inactive); with SF-268, 2.27 µM (inactive). For the same molecule, the GI50 in the test with IGROV-1 was 2.34 µM (inactive); with OVCAR-8, 0.482 µM (active).

`Cc1ccc2c(c1)C(=O)c1ccc(C)nc1C2=O`: the GI50 is 69.2 µM (inactive) in the test on SK-MEL-2; > 100 µM (inactive) in the test with SK-OV-3; 46.8 µM (inactive) in the test on SK-MEL-28; 19.3 µM (inactive) with MDA-MB-435; 31.9 µM (inactive) in the test on COLO 205; 21.9 µM (inactive) with LOX IMVI. Moreover, the GI50 in the test on OVCAR-3 is 6.19 µM (inactive); in the test with PC-3 it was 31.8 µM (inactive); with T47D it was 62.7 µM (inactive); in the test with UO-31, 40.9 µM (inactive); in the test with MOLT-4, > 100 µM (inactive); with CAKI-1, 41.7 µM (inactive). Also, the GI50 with HT-29 is 31.8 µM (inactive); in the test with NCI-H522, 25.9 µM (inactive); in the test with KM12, 27.9 µM (inactive); in the test on HOP-62 it was 37.8 µM (inactive); in the test on SK-MEL-5, 13.2 µM (inactive); with SF-268, 34.9 µM (inactive). The GI50 in the test with IGROV-1 is 27.7 µM (inactive); in the test with OVCAR-8, 46.9 µM (inactive).

Take `Fc1cccc(F)c1C1SCc2nc3ccc(Cl)cc3n21` (stereo not given): the GI50 in the test with SK-MEL-2, in the test on SK-OV-3, in the test with SK-MEL-28, in the test with MDA-MB-435, in the test with COLO 205 and in the test on LOX IMVI was > 100 µM (inactive) in each case. The GI50 in the test with OVCAR-3 is > 100 µM (inactive); with PC-3 it was > 82.8 µM (inactive); with T47D, 95.3 µM (inactive); in the test with UO-31, > 100 µM (inactive); in the test on MOLT-4, > 100 µM (inactive); with CAKI-1, > 100 µM (inactive). In addition, the GI50 in the test on HT-29 is > 85.7 µM (inactive); in the test with NCI-H522 it was > 100 µM (inactive); with KM12, 63 µM (inactive); with HOP-62 it was > 100 µM (inactive); in the test with SK-MEL-5, 85.3 µM (inactive); in the test with SF-268, > 100 µM (inactive). In addition, the GI50 in the test on IGROV-1 and with OVCAR-8 was > 100 µM (inactive) in each case.

For the molecule `COc1c(C(=O)O)cccc1-c1cccc(C(=O)NCCN(CCNC(=O)c2cccc(-c3cccc(C(=O)O)c3OC)c2OC)CCNC(=O)c2cccc(-c3cccc(C(=O)O)c3OC)c2OC)c1OC`, the GI50 was 31.8 µM (inactive) in the test on SK-MEL-2; 33 µM (inactive) with SK-OV-3; 52.5 µM (inactive) in the test with SK-MEL-28; 11.4 µM (inactive) in the test with MDA-MB-435; 20.2 µM (inactive) with COLO 205; 32.3 µM (inactive) in the test with LOX IMVI. The GI50 was 18.5 µM (inactive) in the test with OVCAR-3; 27.9 µM (inactive) with PC-3; 43 µM (inactive) with T47D; > 100 µM (inactive) with UO-31; 36.7 µM (inactive) in the test on MOLT-4; 51.6 µM (inactive) in the test on CAKI-1. Moreover, the GI50 with HT-29 was 20.7 µM (inactive); in the test with NCI-H522, 33.3 µM (inactive); in the test on KM12, 18.6 µM (inactive); in the test on HOP-62 it was 58.9 µM (inactive); in the test on SK-MEL-5, 4.84 µM (inactive); in the test on SF-268, 74.8 µM (inactive). Moreover, the figures for the GI50 with IGROV-1 and with OVCAR-8 were 39.8 µM (inactive) and 63 µM (inactive), respectively.

Turning to `N#C/C(=C\c1ccc2[nH]ccc2c1)C(=O)NCCCCNC(=O)/C(C#N)=C/c1ccc2[nH]ccc2c1`, the GI50 with SK-MEL-2 is > 31.6 µM (inactive); in the test with SK-OV-3, > 31.6 µM (inactive); in the test with SK-MEL-28, > 31.6 µM (inactive); in the test with MDA-MB-435, > 10 µM (inactive); in the test on COLO 205, > 31.6 µM (inactive); in the test with LOX IMVI it was > 31.6 µM (inactive). In addition, the GI50 in the test on OVCAR-3 was > 31.6 µM (inactive); in the test with PC-3 it was > 10 µM (inactive); in the test with T47D it was > 10 µM (inactive); in the test on UO-31 it was > 31.6 µM (inactive); with MOLT-4, > 31.6 µM (inactive); in the test with CAKI-1, > 31.6 µM (inactive). In addition, the GI50 in the test on HT-29, with NCI-H522, in the test on KM12, in the test on HOP-62, in the test on SK-MEL-5 and in the test on SF-268 was > 31.6 µM (inactive) in each case. The GI50 with IGROV-1 and in the test on OVCAR-8 was > 31.6 µM (inactive) each time.
